Series [1] has as its system prostate cancer. Conditions: in vitro; cited from earlier work.
The subject of series [2] is prostate cancer. The following applies: in vivo; cited from earlier work.
The subject of series [3] is T-cell. The following applies: cited from earlier work.
The subject of series [4] is angiogenesis. The following applies: cited from earlier work.
The nature of series [5]: physchem. The following applies: organic solvent or mixture, thermodynamic from solid.
Description: The phase separation of the PEG400-TMC/Gly(90/10)900 triblock copolymer from PEG 300 in the presence of water was evaluated to predict its behavior upon dilution in a largely aqueous physiological environment. […] The phase separation is expected to form a PEG 300-rich phase and a PEG400-TMC/Gly(90/10)900-rich phase, the former containing the highest proportion of water. […] Solubility in the PEG 300-rich phase was estimated from co-solvent studies of water/PEG 300 mixtures.
Series [6] has as its system collagen induced arthritis. The following applies: animal model; cited from earlier work.
For series [7], the system named is synoviocytes. Conditions: cited from earlier work.
Series [8] deals with AP-1. The following applies: via reduced AP-1 binding to DNA; cited from earlier work.
The conditions of series [9]: cited from earlier work.
Series [10] deals with advanced breast, ovarian and non-small cell lung cancer. The following applies: in vivo; cited from earlier work.
For series [11], the system named is neutrophil. Conditions: cited from earlier work.
In series [12] the test system is carrageenin-induced arthritis. Description: Inflammatory carrageenin-induced arthritis model. In kind it is in vivo. Conditions: rabbits.
Series [13] concerns arthritis after anterior cruciate ligament transection. The series can be described thus: Surgical transection of the anterior cruciate ligament (mechanical arthritis model). The following applies: introduced into the joint. In kind it is in vivo, Hartley Guinea pigs. The text has this:
Hartley Guinea pigs subjected to surgical transaction of the anterior cruciate ligament represent a mechanical model for arthritis. Typically after the anterior cruciate is severed, the animals develop arthritis within several weeks.

The test system of series [14] is normal chondrocytes and non-proliferating synoviocytes. The following applies: cited from earlier work.
Series [15] deals with human prostate cancer cell. Conditions: in vitro; cited from earlier work.
For series [16], the system named is prostate tumors. Conditions: via inhibition of angiogenesis; cited from earlier work.

Converted amounts (≈) assume the structure as drawn. Read-outs that look alike come from different tables or passages of the source.

Turning to `C[C@]12CC[C@@H]3c4ccc(OC(=O)N(CCCl)CCCl)cc4CC[C@H]3[C@@H]1CC[C@@H]2O` [estramustine], the “efficacy against prostate cancer” value in series [1] and in series [2] was “some efficacy against prostate cancer” in each case.
Broadly, the solubility is the dissolved amount per volume that the medium holds. `CC(=O)O[C@H]1C(=O)[C@@]2(C)[C@H]([C@H](OC(=O)c3ccccc3)[C@]3(O)C[C@H](OC(=O)[C@H](O)[C@@H](NC(=O)c4ccccc4)c4ccccc4)C(C)=C1C3(C)C)[C@]1(OC(C)=O)CO[C@@H]1C[C@@H]2O` [Paclitaxel]: in series [3], the T-cell function result is “inhibits T-cell function” and the “T-cell response to stimuli” value is “decreases T-cell response to stimuli”. Besides, in series [4], the angiogenesis entry is listed as “potent inhibitory effect on angiogenesis”. Further, in series [5], the solubility is 250 mg/mL (≈ 293 mM). Moreover, in [6], the collagen induced arthritis entry is recorded as “inhibits collagen induced arthritis”. Further, in series [7], the apoptosis in synoviocytes entry was “induces apoptosis in synoviocytes” and the proliferation of synoviocytes entry is on record as “prevents the proliferation of”. Besides, the AP-1 transcription activity result in [8] is recorded as “inhibits AP-1 transcription activity”. The solubility in water in series [9] was 0.001 to 0.002 mg/mL. Further, the “efficacy against advanced cancers” value in [10] is “shown efficacy against advanced breast, ovarian and non-small cell lung cancer”. Moreover, the neutrophil activation entry in series [11] was “inhibits neutrophil activation”. The effect on cartilage result in series [12] was “demonstrated cartilage”. Further, in series [13], the “effect on arthritic process, cartilage and bone” value was “greatly retarded the arthritic process and protected not only the cartilage, but also the underlying bone, from breakdown”. The “toxicity to non-proliferating cells” value in [14] is given as “non-toxic to non-proliferating cells”. The “prostate cancer cell growth” value in [15] was “inhibit human prostate cancer cell growth in vitro”.
As for `O=C1c2c(O)cccc2Cc2cccc(O)c21` [Anthralin], in [9], the “solubility in water” value is on record as “practically insoluble in water”.
In the case of `O=c1c(-c2ccc(O)cc2)coc2cc(O)cc(O)c12` [Genistein], in series [9], the “solubility in water” value is recorded as “practically insoluble in water”.
Regarding `CC[C@@]1(O)C(=O)OCc2c1cc1n(c2=O)Cc2cc3ccccc3nc2-1` [Camptothecin], in series [9], the solubility in water was 0.001 to 0.002 mg/mL.
In the case of `COc1cc(/C=C/C(=O)CC(=O)/C=C/c2ccc(O)c(OC)c2)ccc1O` [Curcumin], in series [9], the “solubility in water” value is “practically insoluble in water”.
On to `CC1=C(/C=C/C(C)=C/C=C/C(C)=C/C(=O)O)C(C)(C)CCC1` [Tretinoin], for which the “solubility in water” value in series [9] is given as “practically insoluble in water”.
Consider `CN(C(=O)c1c(O)c2ccccc2n(C)c1=O)c1ccccc1` [Linomide], for which the “antitumor and antimetastatic effects” value in series [16] is “both antitumor and antimetastatic effects”.
On to `COc1ccc2c(c1)c(CC(=O)O)c(C)n2C(=O)c1ccc(Cl)cc1` [Indomethacin], for which the “solubility in water” value in [9] is given as “practically insoluble in water”.
For `CC[C@]1(O)C[C@@H]2CN(CCc3c([nH]c4ccccc34)[C@@](C(=O)OC)(c3cc4c(cc3OC)N(C)[C@H]3[C@@](O)(C(=O)OC)[C@H](OC(C)=O)[C@]5(CC)C=CCN6CC[C@]43[C@@H]65)C2)C1` [vinblastine], the “efficacy against prostate cancer” value in series [1] and in series [2] was “some efficacy against prostate cancer” throughout.
As to `C[C@@H]1[C@H](O)[C@@H](C)/C=C/C=C/C=C/C=C/C=C/C=C/C=C/[C@H](O[C@@H]2O[C@H](C)[C@@H](O)[C@H](N)[C@@H]2O)C[C@@H]2O[C@](O)(C[C@@H](O)C[C@@H](O)[C@H](O)CC[C@@H](O)C[C@@H](O)CC(=O)O[C@H]1C)C[C@H](O)[C@H]2C(=O)O` [Amphotericin], the “solubility in water” value in [9] (pH 6 to 7) is on record as “insoluble in water”.

These data come from patent publication US20080247987A1, “Block Copolymer Compositions and Uses Thereof” (ANGIOTECH INTERNATIONAL AG, priority 2005, published 2008).
